{"source": "patent US12084472B2", "about": "(Ardelyx, Inc., priority 2015, dated 2024)"}
{"target": "T1, human TGR5 (Homo sapiens, UniProt Q8TDU6)", "T1 construct": "expressed in transfected cells; host or cells: HEK293", "T1 sequence (Q8TDU6 1-330)": "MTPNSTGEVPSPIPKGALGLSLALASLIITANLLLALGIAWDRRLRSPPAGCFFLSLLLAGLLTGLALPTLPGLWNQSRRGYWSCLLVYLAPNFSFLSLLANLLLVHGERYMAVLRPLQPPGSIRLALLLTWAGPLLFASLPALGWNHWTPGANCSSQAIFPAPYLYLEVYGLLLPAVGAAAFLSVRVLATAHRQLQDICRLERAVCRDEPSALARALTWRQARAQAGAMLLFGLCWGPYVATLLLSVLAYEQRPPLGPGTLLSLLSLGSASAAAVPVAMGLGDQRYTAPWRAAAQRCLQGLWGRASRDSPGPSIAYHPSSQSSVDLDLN", "experiment": "Cell-based TGR5 assay (cAMP generation, HTRF)", "conditions": "HEK293 cells stably transfected with human TGR5; cAMP by HTRF; 30 minutes at 37° C.; read-out: pEC50 Human TGR5 (converted)", "procedure,_shortened": "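First, compounds in 3-fold serial dilution were placed in HBSS with 10 mM HEPES pH 7.4 and 0.5 mM IBMX. Next, human TGR5-expressing HEK293 cells were added and incubated 30 min at 37° C. Finally, cAMP was detected by HTRF and pEC50 derived by logistic fitting.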", "units": {"EC50": "nM"}}
{"compound": "CC(=O)NCCN(CCCCSc1ccc(Cl)c(COC2(c3cnccc3-c3ccccc3OC3CC3)CC2)c1)C(=O)[C@@H](O)[C@@H](O)[C@H](O)[C@@H](O)CO", "note": "[Compound I-564, (2S,3S,4R,5S)-N-(4-{[4-chloro-3-({1-[4-(2-cyclopropoxyphenyl)pyridin-3-yl]cyclopropoxy}methyl)phenyl]sulfanyl}butyl)-N-(2-acetamidoethyl)-2,3,4,5,6-pentahydroxyhexanamide]", "EC50": "< 100"}
{"compound": "COCCN(CCCCNC(=O)NC[C@H](O)[C@@H](O)[C@H](O)[C@H](O)CO)S(=O)(=O)c1ccc(Cl)c(COC2(c3cnccc3-c3ccccc3OC3CC3)CC2)c1", "note": "(stereo in doubt) [Compound I-407, 1-{4-[N-(2-methoxyethyl)4-chloro-3-({1-[4-(2-cyclopropoxyphenyl)pyridin-3-yl]cyclopropoxy}methyl)benzenesulfonamido]butyl}-3-[(2S,3R,4R,5R)-2,3,4,5,6-pentahydroxyhexyl]urea]", "EC50": "< 100"}
{"compound": "CC(C)N(CCCCc1cc(Cl)c(COC2(c3cnccc3-c3ccccc3OC3CC3)CC2)cc1Cl)C(=O)[C@@H](O)[C@@H](O)[C@H](O)[C@@H](O)CO", "note": "(stereo in doubt) [Compound I-210, (2S,3S,4R,5S)-N-{4-[2,5-dichloro-4-({1-[4-(2-cyclopropoxyphenyl)pyridin-3-yl]cyclopropoxy}methyl)phenyl]butyl}-2,3,4,5,6-pentahydroxy-N-(propan-2-yl)hexanamide]", "EC50": "< 100"}
{"compound": "O=C(CCCSc1ccc(Cl)c(COC2(c3cnccc3-c3ccccc3OC3CC3)CC2)c1)N(CCCCO)C[C@H](O)[C@@H](O)[C@H](O)[C@H](O)CO", "note": "[Compound I-692, 4-{[4-chloro-3-({1-[4-(2-cyclopropoxyphenyl)pyridin-3-yl]cyclopropoxy}methyl)phenyl]sulfanyl}-N-(4-hydroxybutyl)-N-[(2S,3R,4R,5R)-2,3,4,5,6-pentahydroxyhexyl]butanamide]", "EC50": "126 to 1000"}
{"compound": "NC(=O)CN(C[C@H](O)[C@@H](O)[C@H](O)[C@H](O)CO)C(=O)CCCSc1ccc(Cl)c(COC2(c3cnccc3-c3ccccc3OC3CC3)CC2)c1", "note": "[Compound I-663, N-(carbamoylmethyl)-4-{[4-chloro-3-({1-[4-(2-cyclopropoxyphenyl)pyridin-3-yl]cyclopropoxy}methyl)phenyl]sulfanyl}-N-[(2S,3R,4R,5R)-2,3,4,5,6-pentahydroxyhexyl]butanamide]", "EC50": "126 to 1000"}
{"compound": "CN(CCOCCN)S(=O)(=O)c1ccc(Cl)c(COC2(c3cnccc3-c3ccccc3OC3CC3)CC2)c1", "note": "[Compound I-400, N-[2-(2-aminoethoxy)ethyl]-4-chloro-3-({1-[4-(2-cyclopropoxyphenyl)pyridin-3-yl]cyclopropoxy}methyl)-N-methylbenzene-1-sulfonamide]", "EC50": "126 to 1000"}
{"compound": "O=C(NC[C@H](O)[C@@H](O)[C@H](O)[C@H](O)CO)N[C@H]1CC[C@H](NS(=O)(=O)c2ccc(Cl)c(COC3(c4cnccc4-c4ccccc4OC4CC4)CC3)c2)CC1", "note": "[Compound I-418, 3-[(2S,3R,4R,5R)-2,3,4,5,6-pentahydroxyhexyl]-1-[(1r,4r)-4-[4-chloro-3-({l-[4-(2-cyclopropoxyphenyl)pyridin-3-yl]cyclopropoxy}methyl)benzenesulfonamido]cyclohexyl]urea]", "EC50": "< 100"}
{"compound": "CN(CC(=O)O)CC(=O)N(CCCCc1cc(Cl)c(COC2(c3cnccc3-c3ccccc3OC3CC3)CC2)cc1Cl)C[C@H](O)[C@@H](O)[C@H](O)[C@H](O)CO", "note": "[Compound I-195, 2-{[({4-[2,5-dichloro-4-({1-[4-(2-cyclopropoxyphenyl)pyridin-3-yl]cyclopropoxy}methyl)phenyl]butyl}[(2S,3R,4R,5R)-2,3,4,5,6-pentahydroxyhexyl]carbamoyl)methyl](methyl)amino}acetic acid]", "EC50": "126 to 1000"}
{"compound": "CCOC(=O)NCCCN(CCCCSc1ccc(Cl)c(COC2(c3cnccc3-c3ccccc3OC3CC3)CC2)c1)C(=O)[C@@H](O)[C@@H](O)[C@H](O)[C@@H](O)CO", "note": "[Compound I-578, ethyl N-{3-[(2S,3S,4R,5S)-N-(4-{[4-chloro-3-({1-[4-(2-cyclopropoxyphenyl)pyridin-3-yl]cyclopropoxy}methyl)phenyl]sulfanyl}butyl)-2,3,4,5,6-pentahydroxyhexanamido]propyl}carbamate]", "EC50": "< 100"}
{"compound": "CC(CCCCNC(=O)NC[C@H](O)[C@@H](O)[C@H](O)[C@H](O)CO)c1ccc(Cl)c(CNC2(c3cnccc3-c3ccccc3OC3CC3)CC2)c1", "note": "(stereo partly drawn) [Compound I-267, 1-(5-{4-chloro-3-[({1-[4-(2-cyclopropoxyphenyl)pyridin-3-yl]cyclopropyl}amino)methyl]phenyl}hexyl)-3-[(2S,3R,4R,5R)-2,3,4,5,6-pentahydroxyhexyl]urea]", "EC50": "< 100"}
{"compound": "O=C(NCCCC1(c2ccc(Cl)c(CNC3(c4cnccc4-c4ccccc4OC4CC4)CC3)c2)CC1)NC[C@H](O)[C@@H](O)[C@H](O)[C@H](O)CO", "note": "[Compound I-385, 1-[3-(1-{4-chloro-3-[({1-[4-(2-cyclopropoxyphenyl)pyridin-3-yl]cyclopropyl}amino)methyl]phenyl}cyclopropyl)propyl]-3-[(2S,3R,4R,5R)-2,3,4,5,6-pentahydroxyhexyl]urea]", "EC50": "< 100"}
{"compound": "Cc1ccc(SCCCCN(CCCCO)C(=O)[C@@H](O)[C@@H](O)[C@H](O)[C@@H](O)CO)cc1COC1(c2cnccc2-c2ccccc2OC2CC2)CC1", "note": "[Compound I-541, (2S,3S,4R,5S)-N-(4-{[3-({1-[4-(2-cyclopropoxyphenyl)pyridin-3-yl]cyclopropoxy}methyl)-4-methylphenyl]sulfanyl}butyl)-2,3,4,5,6-pentahydroxy-N-(4-hydroxybutyl)hexanamide]", "EC50": "126 to 1000"}
{"compound": "CC(CCCC(=O)N(CC(=O)N(C)C)C[C@H](O)[C@@H](O)[C@H](O)[C@H](O)CO)c1ccc(Cl)c(CNC2(c3cnccc3-c3ccccc3OC3CC3)CC2)c1", "note": "(stereo partly drawn) [Compound I-340, 5-{4-chloro-3-[({1-[4-(2-cyclopropoxyphenyl)pyridin-3-yl]cyclopropyl}amino)methyl]phenyl}-N-[(dimethylcarbamoyl)methyl]-N-[(2S,3R,4R,5R)-2,3,4,5,6-pentahydroxyhexyl]hexanamide]", "EC50": "126 to 1000"}
{"compound": "CC(C)N(CCCCNC(=O)NC[C@H](O)[C@@H](O)[C@H](O)[C@H](O)CO)S(=O)(=O)c1ccc(Cl)c(CNC2(c3cnccc3-c3ccccc3OC3CC3)CC2)c1", "note": "[Compound I-751, 4-chloro-3-(((1-(4-(2-cyclopropoxyphenyl)pyridin-3-yl)cyclopropyl)amino)methyl)-N-isopropyl-N-(4-(3-((2S,3R,4R,5R)-2,3,4,5,6-pentahydroxyhexyl)ureido)butyl) benzenesulfonamide]", "EC50": "< 100"}
{"compound": "Clc1ccc(C2CC2)cc1COC1(c2cnccc2-c2ccccc2OC2CC2)CC1", "note": "[Compound I-53, 3-{1-[(2-chloro-5-cyclopropylphenyl)methoxy]cyclopropyl}-4-(2-cyclopropoxyphenyl)pyridine]", "EC50": "< 100"}
{"compound": "CSc1ccc(Cl)c(COC2(c3cnccc3-c3ccccc3OC3CC3)CC2)c1", "note": "[Compound I-617, 3-(1-{[2-chloro-5-(methylsulfanyl)phenyl]methoxy}cyclopropyl)-4-(2-cyclopropoxyphenyl) pyridine]", "EC50": "< 100"}
{"compound": "Clc1cc(Cl)cc(COC2(c3cnccc3-c3ccccc3OC3CC3)CC2)c1", "note": "[Compound I-56, 4-(2-cyclopropoxyphenyl)-3-{1-[(3,5-dichlorophenyl)methoxy]cyclopropyl}pyridine]", "EC50": "1260 to 10000"}
